Common to all, as to test: pIC50, kinobeads binding competition
The target of test [1] is UniProt O75460. In a few lines: (§1)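 Jurkat cells were exposed alive to nine compound concentrations (top 30 μM, 1:4 steps) or vehicle for 60 min at 37 °C and then lysed. In a second format, nine concentrations (top 30 μM, 1:5 steps) were incubated for 60 min at 4 °C with Jurkat lysate or with a 1:1:1:1 lysate mix of HEK293, K-562, HepG2 and placenta. Proteins captured on Kinobeads were digested and quantified by TMT10 LC-MS/MS. pIC50 values were derived from logistic dose-response fits (R drc package) of fold changes relative to vehicle, in biological duplicates.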

The target in test [2] is T1, UniProt P46734.
T1 sequence (whole entry): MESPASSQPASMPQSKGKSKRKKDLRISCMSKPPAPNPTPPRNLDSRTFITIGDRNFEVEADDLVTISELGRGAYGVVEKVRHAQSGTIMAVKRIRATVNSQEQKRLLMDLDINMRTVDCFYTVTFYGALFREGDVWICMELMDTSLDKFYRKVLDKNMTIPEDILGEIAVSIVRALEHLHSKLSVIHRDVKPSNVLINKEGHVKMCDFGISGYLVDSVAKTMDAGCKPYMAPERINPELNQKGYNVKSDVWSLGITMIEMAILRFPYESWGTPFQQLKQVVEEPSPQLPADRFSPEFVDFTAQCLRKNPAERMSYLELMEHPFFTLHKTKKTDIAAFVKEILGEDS
In a few lines: as §1

The target of test [3] is NEK7 (UniProt Q8TDX7). In a few lines: as §1
Test [4] deals with T2, ICK (UniProt Q9UPZ9).
T2 sequence (whole entry): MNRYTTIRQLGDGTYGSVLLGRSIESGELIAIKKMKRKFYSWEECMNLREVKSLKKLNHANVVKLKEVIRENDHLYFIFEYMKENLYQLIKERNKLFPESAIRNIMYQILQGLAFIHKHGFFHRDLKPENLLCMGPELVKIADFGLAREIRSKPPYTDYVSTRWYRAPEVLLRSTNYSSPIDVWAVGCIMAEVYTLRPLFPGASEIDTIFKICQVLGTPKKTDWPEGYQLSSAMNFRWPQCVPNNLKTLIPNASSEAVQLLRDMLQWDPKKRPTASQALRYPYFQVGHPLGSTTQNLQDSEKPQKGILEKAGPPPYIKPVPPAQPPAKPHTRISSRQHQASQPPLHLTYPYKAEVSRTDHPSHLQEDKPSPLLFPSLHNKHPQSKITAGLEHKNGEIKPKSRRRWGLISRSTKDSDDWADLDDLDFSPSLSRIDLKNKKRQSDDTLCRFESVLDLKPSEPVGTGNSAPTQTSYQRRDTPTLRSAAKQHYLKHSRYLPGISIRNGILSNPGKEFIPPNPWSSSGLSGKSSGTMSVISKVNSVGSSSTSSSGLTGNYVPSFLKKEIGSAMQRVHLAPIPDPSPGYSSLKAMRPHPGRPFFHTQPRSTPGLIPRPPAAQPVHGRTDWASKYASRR
In a few lines: as §1

Test [5] addresses T3, NEK3 (UniProt P51956).
T3 sequence (whole entry): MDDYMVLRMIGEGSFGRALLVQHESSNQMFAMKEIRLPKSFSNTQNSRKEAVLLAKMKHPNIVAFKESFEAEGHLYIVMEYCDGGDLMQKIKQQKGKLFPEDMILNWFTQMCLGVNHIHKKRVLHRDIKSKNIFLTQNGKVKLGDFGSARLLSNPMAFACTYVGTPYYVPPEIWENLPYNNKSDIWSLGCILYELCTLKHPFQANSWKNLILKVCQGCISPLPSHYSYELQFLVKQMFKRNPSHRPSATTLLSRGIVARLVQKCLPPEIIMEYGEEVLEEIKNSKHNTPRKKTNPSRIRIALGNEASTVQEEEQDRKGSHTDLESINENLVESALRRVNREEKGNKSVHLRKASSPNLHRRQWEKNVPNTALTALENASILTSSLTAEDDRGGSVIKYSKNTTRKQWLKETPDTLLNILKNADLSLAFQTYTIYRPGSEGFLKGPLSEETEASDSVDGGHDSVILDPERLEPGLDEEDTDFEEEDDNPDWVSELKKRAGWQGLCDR
The essentials: as §1

The target of test [6] is IGF1R (UniProt P08069). The essentials: as §1
For test [7], the target named is MARK1 (UniProt Q9P0L2). The note with it: cell material: Lysate mix. The essentials: as §1
The target in test [8] is T4, BMX (UniProt P51813).
T4 sequence (whole entry): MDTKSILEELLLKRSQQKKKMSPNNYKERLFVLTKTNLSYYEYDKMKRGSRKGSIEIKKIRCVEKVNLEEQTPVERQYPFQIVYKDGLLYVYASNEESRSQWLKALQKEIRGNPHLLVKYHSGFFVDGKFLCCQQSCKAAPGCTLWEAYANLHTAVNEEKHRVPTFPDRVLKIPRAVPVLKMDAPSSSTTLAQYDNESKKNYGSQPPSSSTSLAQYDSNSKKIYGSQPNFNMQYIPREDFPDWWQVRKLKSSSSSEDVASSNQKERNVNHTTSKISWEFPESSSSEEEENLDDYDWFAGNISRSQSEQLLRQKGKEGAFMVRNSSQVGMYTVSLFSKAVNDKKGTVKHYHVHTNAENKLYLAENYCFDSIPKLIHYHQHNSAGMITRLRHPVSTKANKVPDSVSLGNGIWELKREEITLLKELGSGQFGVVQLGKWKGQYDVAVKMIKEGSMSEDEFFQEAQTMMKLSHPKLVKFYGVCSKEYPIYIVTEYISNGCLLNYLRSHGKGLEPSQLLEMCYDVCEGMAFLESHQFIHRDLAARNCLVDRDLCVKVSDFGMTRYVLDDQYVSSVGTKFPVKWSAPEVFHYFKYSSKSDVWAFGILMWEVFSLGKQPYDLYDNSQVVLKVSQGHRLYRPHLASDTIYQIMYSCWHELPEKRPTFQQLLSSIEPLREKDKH
The note with it: cell material: Lysate mix. In a few lines: as §1

The target of test [9] is NEK6 (UniProt Q9HC98). The note with it: cell material: Lysate mix. The essentials: as §1
Test [10] has as its target UniProt P49674. In a few lines: as §1
Test [11] addresses WEE1 (UniProt P30291). The essentials: as §1

UniProt P49674, sequence (P49674 whole entry, looked up): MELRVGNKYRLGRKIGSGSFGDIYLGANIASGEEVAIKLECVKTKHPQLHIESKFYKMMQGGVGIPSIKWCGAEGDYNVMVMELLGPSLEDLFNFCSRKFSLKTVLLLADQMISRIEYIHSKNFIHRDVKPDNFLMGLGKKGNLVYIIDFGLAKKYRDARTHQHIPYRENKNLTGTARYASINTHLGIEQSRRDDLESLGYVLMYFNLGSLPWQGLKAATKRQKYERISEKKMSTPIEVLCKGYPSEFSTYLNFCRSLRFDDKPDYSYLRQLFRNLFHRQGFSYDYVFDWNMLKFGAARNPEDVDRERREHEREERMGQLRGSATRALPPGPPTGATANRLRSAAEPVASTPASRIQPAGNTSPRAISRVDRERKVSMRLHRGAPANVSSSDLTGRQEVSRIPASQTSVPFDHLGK
NEK6, sequence (Q9HC98 whole entry): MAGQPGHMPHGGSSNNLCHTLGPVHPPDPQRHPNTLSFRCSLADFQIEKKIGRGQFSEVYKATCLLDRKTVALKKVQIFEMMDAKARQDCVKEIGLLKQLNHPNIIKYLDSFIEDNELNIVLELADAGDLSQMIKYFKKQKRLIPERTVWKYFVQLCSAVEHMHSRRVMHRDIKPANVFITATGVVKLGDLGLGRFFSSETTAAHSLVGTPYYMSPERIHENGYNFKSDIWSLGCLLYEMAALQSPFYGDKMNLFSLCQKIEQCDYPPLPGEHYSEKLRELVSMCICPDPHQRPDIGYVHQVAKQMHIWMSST
UniProt O75460, sequence (O75460 whole entry, looked up): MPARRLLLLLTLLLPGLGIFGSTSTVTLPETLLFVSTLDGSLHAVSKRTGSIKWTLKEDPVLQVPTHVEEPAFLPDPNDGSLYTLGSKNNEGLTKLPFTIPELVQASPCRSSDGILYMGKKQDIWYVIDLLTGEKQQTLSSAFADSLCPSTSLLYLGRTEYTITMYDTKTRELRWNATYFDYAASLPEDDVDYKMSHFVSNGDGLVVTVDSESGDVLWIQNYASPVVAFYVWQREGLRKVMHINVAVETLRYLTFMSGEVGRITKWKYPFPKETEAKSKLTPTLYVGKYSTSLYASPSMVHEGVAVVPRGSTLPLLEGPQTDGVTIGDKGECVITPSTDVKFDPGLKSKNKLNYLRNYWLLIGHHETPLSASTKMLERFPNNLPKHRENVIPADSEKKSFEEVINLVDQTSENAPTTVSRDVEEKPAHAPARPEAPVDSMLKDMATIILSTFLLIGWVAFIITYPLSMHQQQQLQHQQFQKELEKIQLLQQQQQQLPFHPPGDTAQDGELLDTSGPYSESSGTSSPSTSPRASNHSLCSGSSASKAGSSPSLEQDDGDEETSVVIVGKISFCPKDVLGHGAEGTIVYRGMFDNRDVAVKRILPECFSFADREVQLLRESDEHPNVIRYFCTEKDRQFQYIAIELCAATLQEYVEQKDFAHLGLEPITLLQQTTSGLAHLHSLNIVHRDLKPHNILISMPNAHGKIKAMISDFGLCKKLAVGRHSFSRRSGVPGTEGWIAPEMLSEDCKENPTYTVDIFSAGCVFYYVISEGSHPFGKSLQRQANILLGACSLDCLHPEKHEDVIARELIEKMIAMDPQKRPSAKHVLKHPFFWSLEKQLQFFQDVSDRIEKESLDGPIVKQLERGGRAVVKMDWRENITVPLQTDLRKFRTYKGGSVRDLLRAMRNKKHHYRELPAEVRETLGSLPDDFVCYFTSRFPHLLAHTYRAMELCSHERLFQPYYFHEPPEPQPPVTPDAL
MARK1, sequence (Q9P0L2 whole entry, looked up): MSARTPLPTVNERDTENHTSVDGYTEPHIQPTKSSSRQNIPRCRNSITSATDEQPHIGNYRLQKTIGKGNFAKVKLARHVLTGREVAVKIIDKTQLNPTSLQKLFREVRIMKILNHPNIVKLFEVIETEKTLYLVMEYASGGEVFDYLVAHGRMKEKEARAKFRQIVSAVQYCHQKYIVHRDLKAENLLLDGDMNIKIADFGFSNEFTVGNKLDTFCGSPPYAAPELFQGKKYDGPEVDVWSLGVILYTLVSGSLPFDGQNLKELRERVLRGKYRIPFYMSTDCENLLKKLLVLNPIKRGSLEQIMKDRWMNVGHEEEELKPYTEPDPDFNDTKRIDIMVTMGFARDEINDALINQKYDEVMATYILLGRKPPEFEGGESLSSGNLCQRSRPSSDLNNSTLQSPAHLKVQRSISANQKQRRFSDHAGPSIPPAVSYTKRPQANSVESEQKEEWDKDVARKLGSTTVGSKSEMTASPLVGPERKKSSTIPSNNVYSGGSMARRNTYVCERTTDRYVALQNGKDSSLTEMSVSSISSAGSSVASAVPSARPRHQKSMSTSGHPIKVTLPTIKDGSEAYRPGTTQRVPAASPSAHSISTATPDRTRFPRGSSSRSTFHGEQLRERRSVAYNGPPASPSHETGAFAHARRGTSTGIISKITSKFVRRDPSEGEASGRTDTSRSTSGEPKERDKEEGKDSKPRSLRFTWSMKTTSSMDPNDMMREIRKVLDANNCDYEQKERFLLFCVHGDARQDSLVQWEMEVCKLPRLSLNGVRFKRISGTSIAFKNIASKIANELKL
IGF1R, sequence (P08069 whole entry, looked up): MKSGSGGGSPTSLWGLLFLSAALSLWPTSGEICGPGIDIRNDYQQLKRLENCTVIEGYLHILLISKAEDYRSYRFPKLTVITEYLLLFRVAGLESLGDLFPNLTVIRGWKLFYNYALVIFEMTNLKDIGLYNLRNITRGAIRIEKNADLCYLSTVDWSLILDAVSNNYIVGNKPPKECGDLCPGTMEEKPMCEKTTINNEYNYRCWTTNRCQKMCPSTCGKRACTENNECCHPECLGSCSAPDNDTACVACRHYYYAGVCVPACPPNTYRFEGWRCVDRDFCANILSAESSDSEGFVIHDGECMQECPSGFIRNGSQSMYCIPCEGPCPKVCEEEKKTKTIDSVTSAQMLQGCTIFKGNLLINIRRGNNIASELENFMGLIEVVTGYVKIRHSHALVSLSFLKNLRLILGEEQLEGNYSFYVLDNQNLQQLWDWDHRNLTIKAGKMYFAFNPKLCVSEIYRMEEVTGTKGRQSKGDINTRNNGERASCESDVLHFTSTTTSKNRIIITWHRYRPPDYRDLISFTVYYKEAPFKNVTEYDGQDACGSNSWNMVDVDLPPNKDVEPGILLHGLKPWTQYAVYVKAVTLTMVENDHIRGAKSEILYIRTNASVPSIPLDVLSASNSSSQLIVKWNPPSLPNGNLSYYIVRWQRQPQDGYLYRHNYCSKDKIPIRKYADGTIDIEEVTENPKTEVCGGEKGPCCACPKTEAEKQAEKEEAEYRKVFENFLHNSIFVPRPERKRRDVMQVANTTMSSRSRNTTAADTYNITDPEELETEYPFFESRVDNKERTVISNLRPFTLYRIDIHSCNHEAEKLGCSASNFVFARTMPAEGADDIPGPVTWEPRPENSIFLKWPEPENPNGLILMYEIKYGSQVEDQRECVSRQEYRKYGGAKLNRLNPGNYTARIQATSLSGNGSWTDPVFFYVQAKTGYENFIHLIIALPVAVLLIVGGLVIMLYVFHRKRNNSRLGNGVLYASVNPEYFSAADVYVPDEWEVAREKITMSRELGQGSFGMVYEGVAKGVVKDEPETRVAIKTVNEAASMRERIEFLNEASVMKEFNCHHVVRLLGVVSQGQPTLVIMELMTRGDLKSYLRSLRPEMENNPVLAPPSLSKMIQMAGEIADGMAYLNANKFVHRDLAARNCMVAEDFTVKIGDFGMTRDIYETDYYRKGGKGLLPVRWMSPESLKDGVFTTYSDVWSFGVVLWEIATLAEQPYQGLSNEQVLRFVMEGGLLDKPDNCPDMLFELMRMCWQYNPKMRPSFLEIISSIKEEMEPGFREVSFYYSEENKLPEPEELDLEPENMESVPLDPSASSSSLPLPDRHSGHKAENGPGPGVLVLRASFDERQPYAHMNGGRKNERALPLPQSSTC
WEE1, sequence (P30291 whole entry, looked up): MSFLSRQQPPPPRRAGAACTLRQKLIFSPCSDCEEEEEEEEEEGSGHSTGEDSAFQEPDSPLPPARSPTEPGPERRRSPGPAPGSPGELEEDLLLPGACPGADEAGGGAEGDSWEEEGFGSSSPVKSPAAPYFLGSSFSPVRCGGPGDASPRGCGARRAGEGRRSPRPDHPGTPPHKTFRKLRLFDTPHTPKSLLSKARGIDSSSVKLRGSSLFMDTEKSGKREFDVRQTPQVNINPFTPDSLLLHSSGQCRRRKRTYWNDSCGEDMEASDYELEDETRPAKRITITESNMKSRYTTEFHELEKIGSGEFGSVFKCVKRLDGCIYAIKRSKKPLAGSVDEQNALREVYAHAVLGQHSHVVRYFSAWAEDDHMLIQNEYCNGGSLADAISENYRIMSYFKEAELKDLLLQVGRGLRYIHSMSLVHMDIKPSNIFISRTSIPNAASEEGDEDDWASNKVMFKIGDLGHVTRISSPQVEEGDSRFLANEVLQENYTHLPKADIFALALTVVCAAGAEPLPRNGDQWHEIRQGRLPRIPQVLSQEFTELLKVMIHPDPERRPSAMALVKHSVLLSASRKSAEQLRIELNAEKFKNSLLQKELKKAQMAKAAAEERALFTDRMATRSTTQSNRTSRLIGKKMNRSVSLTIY
NEK7, sequence (Q8TDX7 whole entry, looked up): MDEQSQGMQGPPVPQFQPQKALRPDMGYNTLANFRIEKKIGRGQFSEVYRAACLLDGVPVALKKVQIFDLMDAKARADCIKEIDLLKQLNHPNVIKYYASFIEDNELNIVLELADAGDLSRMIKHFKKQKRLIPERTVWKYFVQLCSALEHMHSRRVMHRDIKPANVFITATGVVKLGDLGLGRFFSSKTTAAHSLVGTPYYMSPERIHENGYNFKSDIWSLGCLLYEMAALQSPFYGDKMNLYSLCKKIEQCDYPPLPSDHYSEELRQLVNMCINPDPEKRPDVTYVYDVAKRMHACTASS

The pIC50 is the IC50 on a negative log10 scale, so that one unit is a factor of ten. As to `O=C(NCCNC(=O)c1cc(Nc2cc(C3CC3)[nH]n2)nc(N2CCN(Cc3ccc(S(=O)(=O)F)cc3)CC2)n1)OC1CC/C=C/CCC1` (stereo not given), the pIC50 is less than 4.52 in test [1] (cell material: Jurkat lysate); less than 4.52 in test [1] (cell material: Lysate mix); less than 4.52 in test [2] (cell material: Jurkat cells); less than 4.52 in test [2] (cell material: Jurkat lysate); less than 4.52 in [2] (cell material: Lysate mix); 6.85 in test [3] (cell material: Jurkat cells). For the same compound, the pIC50 was less than 4.52 in test [3] (cell material: Jurkat lysate); less than 4.52 in test [3] (cell material: Lysate mix); 6.56 in test [4] (cell material: Jurkat cells); 5.31 in test [4] (cell material: Jurkat lysate); 5.38 in [4] (cell material: Lysate mix); 5.56 in test [5] (cell material: Jurkat cells). Further, the pIC50 in test [5] (cell material: Lysate mix), in test [6] (cell material: Jurkat cells), in test [6] (cell material: Jurkat lysate), in [6] (cell material: Lysate mix), in test [7] and in [8] was less than 4.52 throughout. Further, the pIC50 in test [9], in [10] (cell material: Jurkat lysate), in test [10] (cell material: Lysate mix), in test [11] (cell material: Jurkat lysate) and in test [11] (cell material: Lysate mix) was less than 4.52 in each case.

For `Cc1cc(Nc2cc(C(=O)NCCNC(=O)OC3CC/C=C/CCC3)nc(N3CCN(Cc4ccc(S(=O)(=O)F)cc4)CC3)n2)n[nH]1` (stereo not given), the pIC50 in test [1] (cell material: Lysate mix), in [2] (cell material: Lysate mix), in test [3] (cell material: Lysate mix), in test [4] (cell material: Lysate mix), in [5] (cell material: Lysate mix) and in [6] (cell material: Lysate mix) was less than 4.52 each time. Further, the pIC50 in test [7], in test [8], in test [9], in test [10] (cell material: Lysate mix) and in test [11] (cell material: Lysate mix) was less than 4.52 throughout.

As to `CCNC(=O)c1cc(Nc2cc(C)[nH]n2)nc(N2CCN(Cc3ccc(S(=O)(=O)F)cc3)CC2)n1`, the pIC50 in [1] (cell material: Lysate mix) was less than 4.52; in test [2] (cell material: Lysate mix) it was less than 4.52; in test [3] (cell material: Lysate mix), less than 4.52; in test [4] (cell material: Lysate mix), 5.64; in [5] (cell material: Lysate mix), less than 4.52; in test [6] (cell material: Lysate mix), less than 4.52. Also, the pIC50 in [7], in [8], in test [9], in test [10] (cell material: Lysate mix) and in test [11] (cell material: Lysate mix) was less than 4.52 in each case.

Take `C#CCNC(=O)c1cc(Nc2cc(C3CC3)[nH]n2)nc(N2CCN(Cc3ccc(S(=O)(=O)F)cc3)CC2)n1`: the pIC50 was less than 4.52 in test [1] (cell material: Jurkat cells); less than 4.52 in [1] (cell material: Jurkat lysate); less than 4.52 in [1] (cell material: Lysate mix); 5.54 in test [2] (cell material: Jurkat cells); 4.87 in [2] (cell material: Lysate mix); 6.88 in [3] (cell material: Jurkat cells). Besides, the pIC50 in test [3] (cell material: Jurkat lysate) is less than 4.52; in test [3] (cell material: Lysate mix), less than 4.52; in [4] (cell material: Jurkat lysate), 6.22; in test [4] (cell material: Lysate mix), 6.53; in [5] (cell material: Jurkat lysate) it was 4.66; in test [5] (cell material: Lysate mix), 5.7. Further, the pIC50 in test [6] (cell material: Jurkat lysate) is less than 4.52; in test [6] (cell material: Lysate mix) it was less than 4.52; in test [7] it was less than 4.52; in test [8], less than 4.52; in test [9], less than 4.52; in [10] (cell material: Jurkat cells), 5.4. The pIC50 was less than 4.52 in test [10] (cell material: Jurkat lysate); less than 4.52 in test [10] (cell material: Lysate mix); 5.62 in [11] (cell material: Jurkat cells); less than 4.52 in test [11] (cell material: Jurkat lysate); less than 4.52 in test [11] (cell material: Lysate mix).

`C#CCNC(=O)c1cc(Nc2cc(C)[nH]n2)nc(N2CCN(Cc3ccc(S(=O)(=O)F)cc3)CC2)n1`: the pIC50 in test [1] (cell material: Lysate mix) was less than 4.52; in test [2] (cell material: Lysate mix), less than 4.52; in test [3] (cell material: Lysate mix), less than 4.52; in test [4] (cell material: Lysate mix) it was 5.43; in test [5] (cell material: Lysate mix) it was less than 4.52; in test [6] (cell material: Lysate mix) it was less than 4.52. Also, the pIC50 in test [7], in test [8], in test [9], in [10] (cell material: Lysate mix) and in [11] (cell material: Lysate mix) was less than 4.52 in each case.

In the case of `CCNC(=O)c1cc(Nc2cc(C3CC3)[nH]n2)nc(N2CCN(Cc3ccc(S(=O)(=O)F)cc3)CC2)n1`, the pIC50 in [1] (cell material: Lysate mix) is less than 4.52; in test [2] (cell material: Lysate mix), 4.9; in test [3] (cell material: Lysate mix) it was less than 4.52; in test [4] (cell material: Lysate mix) it was 6.46; in test [5] (cell material: Lysate mix), 5.46; in [6] (cell material: Lysate mix), less than 4.52. The pIC50 in test [7], in test [8], in [9], in test [10] (cell material: Lysate mix) and in test [11] (cell material: Lysate mix) was less than 4.52 in each case.

For the origin of these results see the supplement of paper PMC12076712.
